In publication PMC6104039 (Nature Communications, 2018):
“And” between values parts separate entries of the source, which are not always exact repeats. Identical values can stand only once.

Test system: adipose tissue
Test: Ceramide and SM species in epididymal adipose tissue
Assay type: in vivo, mice
Conditions: for Ceramide 18:1/16:0 content of white adipose tissue / Ceramide 18:1/18:0 content of white adipose tissue / Ceramide 18:1/20:0 content of white adipose tissue / Ceramide 18:1/22:0 content of white adipose tissue / Ceramide 18:1/24:0 content of white adipose tissue / Ceramide 18:1/24:1 content of white adipose tissue / Ceramide 18:2/18:0 content of white adipose tissue / Ceramide 18:2/22:0 content of white adipose tissue / Ceramide 18:2/24:0 content of white adipose tissue / Ceramide 18:2/24:1 content of white adipose tissue / SM 34:1 content of white adipose tissue / SM 34:2 content of white adipose tissue / SM 36:1 content of white adipose tissue / SM 36:2 content of white adipose tissue / SM 38:1 content of white adipose tissue / SM 38:2 content of white adipose tissue / SM 40:1 content of white adipose tissue / SM 40:2 content of white adipose tissue / SM 42:1 content of white adipose tissue / SM 42:2 content of white adipose tissue / SM 42:3 content of white adipose tissue: individual values; for Ceramide 18:1/16:0 content of white adipose tissue / Ceramide 18:1/18:0 content of white adipose tissue / Ceramide 18:1/20:0 content of white adipose tissue / Ceramide 18:1/22:0 content of white adipose tissue / Ceramide 18:1/24:0 content of white adipose tissue / Ceramide 18:1/24:1 content of white adipose tissue / Ceramide 18:2/18:0 content of white adipose tissue / Ceramide 18:2/22:0 content of white adipose tissue / Ceramide 18:2/24:0 content of white adipose tissue / Ceramide 18:2/24:1 content of white adipose tissue: raw data Fig 3l; for SM 34:1 content of white adipose tissue / SM 34:2 content of white adipose tissue / SM 36:1 content of white adipose tissue / SM 36:2 content of white adipose tissue / SM 38:1 content of white adipose tissue / SM 38:2 content of white adipose tissue / SM 40:1 content of white adipose tissue / SM 40:2 content of white adipose tissue / SM 42:1 content of white adipose tissue / SM 42:2 content of white adipose tissue / SM 42:3 content of white adipose tissue: raw data Fig 3m
Protocol: Male C57BL6/J mice were obtained from the Animal Resources Centre in Perth (WA, Australia). Mice were housed at 22 ± 1 °C with a controlled 12:12 h light-dark cycle and had ad libitum access to water and either chow (8% calories from fat) or HFD (45% calories from fat)[66] for 4–6 weeks. […] Treatment was commenced at the same time as mice were randomised to dietary groups. The experiments were approved by the UNSW animal care and ethics committee (ACEC 15/48B), and followed guidelines issued by the National Health and Medical Research Council of Australia.
Lipids were extracted from frozen tissue samples or cells using a two-phase procedure with methyl-tert-butyl ether (MTBE)/methanol/water (10:3:2.5, v/v/v)[67]. Frozen tissue samples (~20 mg) were homogenized in 0.2 mL methanol containing 0.01% butylated hydroxytoluene (BHT), using a Precellys 24 homogenizer and Cryolys cooling unit (Bertin Technologies) with CK14 (1.4-mm ceramic) beads. The homogenates were spiked with an internal standard mixture comprising 5 nmole 19:0/19:0 phosphatidylcholine and 2 nmole each of 17:0/17:0 phosphatidylethanolamine, 17:0/17:0 phosphatidylserine, 17:0/17:0 d5-diacylglycerol, 17:0/17:0 phosphatidylglycerol, 14:0/14:0/14:0/14:0 cardiolipin, 18:1/12:0 SM, 18:1/17:0 ceramide, 18:1/12:0 glucosylceramide, 18:1/12:0 lactosylceramide, 18:1/12:0 sulfatide (all from Avanti Polar Lipids, USA), and 17:0/17:0/17:0 TAG (Cayman Chemical, USA), then transferred to 10 mL screw cap glass tubes. The homogenization tubes containing beads were then washed with another 0.3 mL methanol, and this wash was combined with the first methanol extract, after which 1.7 mL MTBE was added and the samples were sonicated in an ice-cold sonicating water bath (Thermoline Scientific, Australia) for 30 min. Phase separation was induced by addition of 417 µL of mass spectrometry-grade water followed by vortexing and centrifugation at 1000 × g for 10 min. The upper organic phase was collected into 5 mL glass tubes. The lower phase was re-extracted by adding 1 mL MTBE, 300 μL methanol, and 250 μL water. The organic phases were combined in the 5 mL glass tubes and dried under vacuum in a Savant SC210 SpeedVac (Thermo Scientific), then reconstituted in 500 μL methanol and stored at −20 °C until analysis.
Lipidomic profiling was performed on a QExactive Plus mass spectrometer with heated electrospray ionization (HESI) probe and a Dionex UltiMate 2000 LC pump (Thermo Fisher Scientific). Extracts were resolved on a 2.1 × 100 mm Waters Acquity C18 UPLC column (1.7 µm […]), using a binary gradient in which mobile phase A consisted of acetonitrile:water (60:40), 10 mM ammonium formate, 0.1% formic acid; and mobile phase B was isopropanol:acetonitrile (90:10), 10 mM ammonium formate, 0.1% formic acid[68]. The flow rate was 260 µL/min and column oven 55 °C. Data was acquired in full scan/data-dependent MS^2 mode (full scan resolution 70,000 FWHM, scan range 400–1200 m/z). The ten most abundant ions in each cycle were subjected to MS^2 using an isolation window of 1.4 m/z, collision energy 30 eV, resolution 17,500, maximum integration time 110 ms and dynamic exclusion window 10 s. An exclusion list of background ions was used based on a solvent blank. LipidSearch v4.1.30 software (ThermoFisher Scientific) was used for chromatogram alignment, peak identification and integration. Each lipid peak was manually verified for column elution time and characteristic fragment ions. Data were then exported to an Excel spreadsheet for normalisation of each lipid to its class-specific internal standard, and lipid concentrations were calculated relative to the internal standard.

With C[C@@](N)(CO)CCc1ccc(OCc2ccc(Cl)c(Cl)c2)cc1 [P053, (S)-2-amino-4-(4-(3,4-dichlorobenzyloxy)phenyl)-2-methylbutan-1-ol] the “Ceramide 18:1/16:0 content of white adipose tissue” value (Chow + P053) was 10.929 and 4.227 and 17.193 and 8.156 and 14.726 and 6.210 and 17.172 and 6.636 and 12.272 and 15.061, the “Ceramide 18:1/18:0 content of white adipose tissue” value (Chow + P053) was 2.114 and 0.846 and 3.339 and 1.520 and 2.375 and 1.130 and 3.918 and 1.468 and 2.718 and 2.056 and the “Ceramide 18:1/20:0 content of white adipose tissue” value (Chow + P053) was 1.814 and 0.867 and 3.626 and 1.453 and 2.395 and 1.178 and 2.617 and 1.217 and 2.593 and 1.998. The “Ceramide 18:1/22:0 content of white adipose tissue” value (Chow + P053) was 4.127 and 2.201 and 7.564 and 3.535 and 5.536 and 3.049 and 7.800 and 3.557 and 5.828 and 4.572, the “Ceramide 18:1/24:0 content of white adipose tissue” value (Chow + P053) was 6.125 and 3.020 and 12.234 and 6.320 and 9.940 and 4.064 and 14.430 and 5.790 and 10.017 and 7.844 and the “Ceramide 18:1/24:1 content of white adipose tissue” value (Chow + P053) was 10.504 and 6.110 and 22.417 and 11.780 and 19.731 and 7.603 and 26.592 and 10.551 and 18.107 and 16.532. The “Ceramide 18:2/18:0 content of white adipose tissue” value (Chow + P053) was 1.183 and 0.312 and 1.256 and 0.618 and 1.358 and 0.382 and 1.268 and 0.527 and 0.931 and 1.219, the “Ceramide 18:2/22:0 content of white adipose tissue” value (Chow + P053) was 2.177 and 0.918 and 3.608 and 1.721 and 2.577 and 1.375 and 2.989 and 1.482 and 2.309 and 2.564 and the “Ceramide 18:2/24:0 content of white adipose tissue” value (Chow + P053) was 4.508 and 1.750 and 7.166 and 3.688 and 5.287 and 2.715 and 7.269 and 3.296 and 4.451 and 6.052. The “Ceramide 18:2/24:1 content of white adipose tissue” value (Chow + P053) was 4.820 and 2.648 and 9.228 and 4.871 and 7.660 and 3.147 and 9.518 and 3.932 and 5.805 and 6.812, the “SM 34:1 content of white adipose tissue” value (Chow + P053) was 276.61 and 66.44 and 226.46 and 212.93 and 276.78 and 111.51 and 327.37 and 118.77 and 188.15 and 267.47 and the “SM 34:2 content of white adipose tissue” value (Chow + P053) was 23.85 and 2.33 and 6.66 and 4.19 and 4.83 and 3.15 and 5.28 and 2.34 and 3.58 and 6.77. For the same compound, the “SM 36:1 content of white adipose tissue” value (Chow + P053) was 33.66 and 9.97 and 25.23 and 24.39 and 28.26 and 12.44 and 31.61 and 15.13 and 21.89 and 30.09, the “SM 36:2 content of white adipose tissue” value (Chow + P053) was 12.60 and 1.84 and 8.68 and 8.41 and 12.18 and 3.45 and 12.76 and 4.74 and 5.44 and 12.73 and the “SM 38:1 content of white adipose tissue” value (Chow + P053) was 22.37 and 7.77 and 26.08 and 17.58 and 21.03 and 10.59 and 19.70 and 11.77 and 20.28 and 19.73. The “SM 38:2 content of white adipose tissue” value (Chow + P053) was 5.83 and 1.41 and 5.52 and 4.51 and 5.60 and 2.81 and 4.44 and 2.01 and 3.84 and 6.42, the “SM 40:1 content of white adipose tissue” value (Chow + P053) was 44.87 and 18.02 and 56.10 and 41.83 and 53.17 and 20.49 and 52.33 and 23.88 and 40.81 and 43.57 and the “SM 40:2 content of white adipose tissue” value (Chow + P053) was 12.98 and 4.14 and 11.80 and 8.16 and 10.55 and 6.16 and 10.26 and 5.10 and 7.07 and 11.44. For the same compound, the “SM 42:1 content of white adipose tissue” value (Chow + P053) was 28.12 and 11.04 and 39.22 and 23.51 and 29.01 and 11.65 and 31.95 and 14.81 and 26.21 and 27.56, the “SM 42:2 content of white adipose tissue” value (Chow + P053) was 81.27 and 33.26 and 95.54 and 83.35 and 95.85 and 36.01 and 109.30 and 44.61 and 71.06 and 85.15 and the “SM 42:3 content of white adipose tissue” value (Chow + P053) was 22.64 and 7.14 and 18.55 and 16.77 and 22.11 and 8.66 and 22.41 and 8.50 and 11.09 and 21.29. For the same compound, the “Ceramide 18:1/16:0 content of white adipose tissue” value (HFD + P053) was 7.201 and 8.054 and 16.149 and 4.934 and 4.539 and 15.378 and 9.982 and 4.818 and 11.537 and 7.369, the “Ceramide 18:1/18:0 content of white adipose tissue” value (HFD + P053) was 2.978 and 2.646 and 5.343 and 1.908 and 1.464 and 4.498 and 3.784 and 2.039 and 3.490 and 2.759 and the “Ceramide 18:1/20:0 content of white adipose tissue” value (HFD + P053) was 1.960 and 1.699 and 2.742 and 0.969 and 1.134 and 2.311 and 2.304 and 0.962 and 2.130 and 1.825. For the same compound, the “Ceramide 18:1/22:0 content of white adipose tissue” value (HFD + P053) was 2.875 and 3.855 and 6.655 and 3.344 and 2.629 and 5.839 and 6.468 and 2.833 and 3.815 and 4.292, the “Ceramide 18:1/24:0 content of white adipose tissue” value (HFD + P053) was 2.389 and 3.918 and 5.983 and 4.215 and 2.773 and 8.001 and 8.331 and 4.355 and 4.168 and 5.733 and the “Ceramide 18:1/24:1 content of white adipose tissue” value (HFD + P053) was 6.096 and 8.629 and 13.174 and 7.744 and 4.866 and 14.789 and 13.116 and 7.511 and 9.181 and 8.543. For the same compound, the “Ceramide 18:2/18:0 content of white adipose tissue” value (HFD + P053) was 1.491 and 1.389 and 1.897 and 0.793 and 0.611 and 2.474 and 2.012 and 0.838 and 2.141 and 1.309, the “Ceramide 18:2/22:0 content of white adipose tissue” value (HFD + P053) was 1.850 and 2.082 and 3.075 and 1.861 and 1.560 and 3.228 and 3.861 and 1.939 and 2.443 and 2.309 and the “Ceramide 18:2/24:0 content of white adipose tissue” value (HFD + P053) was 2.470 and 3.270 and 4.398 and 3.698 and 2.656 and 6.741 and 6.951 and 4.253 and 4.048 and 5.078. The “Ceramide 18:2/24:1 content of white adipose tissue” value (HFD + P053) was 3.997 and 4.831 and 5.433 and 4.596 and 3.171 and 8.097 and 7.476 and 4.878 and 5.777 and 4.939, the “SM 34:1 content of white adipose tissue” value (HFD + P053) was 138.16 and 152.76 and 183.91 and 125.06 and 78.40 and 408.02 and 164.42 and 164.75 and 189.26 and 180.12 and the “SM 34:2 content of white adipose tissue” value (HFD + P053) was 3.94 and 4.36 and 5.23 and 3.24 and 2.75 and 11.91 and 3.96 and 4.10 and 5.05 and 4.63. For the same compound, the “SM 36:1 content of white adipose tissue” value (HFD + P053) was 30.80 and 33.18 and 60.02 and 24.06 and 21.10 and 82.70 and 34.64 and 35.42 and 37.81 and 37.83, the “SM 36:2 content of white adipose tissue” value (HFD + P053) was 13.65 and 13.63 and 9.26 and 9.31 and 4.59 and 33.15 and 15.13 and 9.69 and 16.44 and 14.20 and the “SM 38:1 content of white adipose tissue” value (HFD + P053) was 14.96 and 15.80 and 25.22 and 10.28 and 10.56 and 34.10 and 16.91 and 15.85 and 15.88 and 17.49. For the same compound, the “SM 38:2 content of white adipose tissue” value (HFD + P053) was 5.67 and 4.70 and 6.95 and 2.89 and 2.82 and 9.23 and 2.88 and 2.78 and 5.06 and 4.54, the “SM 40:1 content of white adipose tissue” value (HFD + P053) was 19.38 and 29.35 and 36.60 and 23.08 and 16.71 and 83.76 and 47.96 and 37.67 and 36.07 and 44.84 and the “SM 40:2 content of white adipose tissue” value (HFD + P053) was 7.44 and 8.09 and 11.71 and 6.74 and 5.23 and 19.76 and 11.68 and 7.96 and 9.66 and 10.63. The “SM 42:1 content of white adipose tissue” value (HFD + P053) was 8.78 and 13.45 and 15.34 and 10.58 and 7.52 and 42.80 and 18.82 and 17.05 and 15.81 and 20.73, the “SM 42:2 content of white adipose tissue” value (HFD + P053) was 28.15 and 38.15 and 51.68 and 31.28 and 20.55 and 119.48 and 50.63 and 47.22 and 48.80 and 50.51 and the “SM 42:3 content of white adipose tissue” value (HFD + P053) was 9.88 and 12.29 and 14.77 and 10.62 and 6.46 and 36.48 and 16.98 and 13.87 and 16.08 and 14.63. For the same compound, the “C18 ceramide or SM and other ceramide or SM species in adipose tissue” value (chow or HFD) was “did not significantly impact”.
